Experimental data taken from patent publication US8986995B2, “Methods of deriving differentiated cells from stem cells” (International Stem Cell Corporation, priority 2008, dated 2015).
“Also recorded” adds a separate entry of the source.

What was measured:
hpSC = assay: Proportion of DE derived from hpSC, HDAC inhibitor pretreatment versus simultaneous application with Activin A; type: cell-based, human; conditions: for enhancement in the proportion of DE produced from hpSC: applied at the same time with Activin A
hpSC line 2 p = assay: Flow cytometry for CXCR4-positive definitive endoderm cells after differentiation, line 2 p; type: cell-based, human; conditions: TSA pretreatment
Procedure: (§1) Cell culture. Undifferentiated hpSC and hESC were maintained on mouse embryo fibroblast feeder layers in KnockOut DMEM/F12 (Invitrogen) supplemented with 15% KnockOut serum replacement (Invitrogen), 0.05 mM nonessential amino acids (NEAA) (Invitrogen), 2 mM Glutamax-I (Invitrogen), penicillin/streptomycin (Invitrogen), 55 μM 2-mercapthoethonol (Invitrogen), 5 ng/ml recombinant human FGF-basic (PeproTech) and 20 ng/ml recombinant human activin A (R&D Systems); for TSA-pretreatment culture medium was supplemented with 100 nM TSA (Sigma) for 24 hours. Cultures were manually passaged at 1:4-1:6 split ratio every 5-7 days. Differentiation was carried out in RPMI 1640 (Invitrogen) supplemented with Glutamax-I, penicillin/streptomycin, 0.5 mg/ml human serum albumin (Sigma), 100 ng/ml recombinant human Activin A, 75 ng/ml recombinant mouse Wnt3a (R&D Systems) for the first 24 hours only. For subsequent days of differentiation media was RPMI 1640 supplemented with 0.2% human AB serum (Fisher BioReagents) and 100 ng/ml recombinant human Activin A. Before initiating differentiation, stem cells were given a brief wash in DPBS (HyClone). […]
(§2) Flow cytometry. […] Flow cytometry data were acquired on a Beckton Dickinson FACS Caliber and analyzed using FACSDiva software (BD Bioscience).

hpSC line 6 p = assay: Flow cytometry for CXCR4-positive definitive endoderm cells after differentiation, line 6 p; type: cell-based, human; conditions: TSA pretreatment
Procedure: as §1, §2

hpSC line 8 p = assay: Flow cytometry for CXCR4-positive definitive endoderm cells after differentiation, line 8 p; type: cell-based, human; conditions: TSA pretreatment
Procedure: as §1, §2

hpSC line 15 ph = assay: Flow cytometry for CXCR4-positive definitive endoderm cells after differentiation, line 15 ph; type: cell-based, human; conditions: TSA pretreatment
Procedure: as §1, §2

[1] = test system: human parthenogenetic stem cells (hpSC); assay: Flow cytometry for CXCR4-positive cells, hpSC differentiation to definitive endoderm; type: cell-based; conditions: all 4 hpSC lines, CXCR4-positive cells by flow cytometry
Procedure: as §1
Flow cytometry. […] Flow cytometry data were acquired on a Beckton Dickinson FACS Caliber and analyzed using FACSDiva software (BD Bioscience). […]

[2] = test system: human parthenogenetic stem cells (hpSC); assay: SOX17 immunostaining of differentiated hpSC; type: cell-based
Procedure: (§3) Cell culture. Undifferentiated hpSC and hESC were maintained on mouse embryo fibroblast feeder layers in KnockOut DMEM/F12 (Invitrogen) supplemented with 15% KnockOut serum replacement (Invitrogen), 0.05 mM nonessential amino acids (NEAA) (Invitrogen), 2 mM Glutamax-I (Invitrogen), penicillin/streptomycin (Invitrogen), 55 μM 2-mercapthoethonol (Invitrogen), 5 ng/ml recombinant human FGF-basic (PeproTech) and 20 ng/ml recombinant human activin A (R&D Systems); for TSA-pretreatment culture medium was supplemented with 100 nM TSA (Sigma) for 24 hours. Cultures were manually passaged at 1:4-1:6 split ratio every 5-7 days. Differentiation was carried out in RPMI 1640 (Invitrogen) supplemented with Glutamax-I, penicillin/streptomycin, 0.5 mg/ml human serum albumin (Sigma), 100 ng/ml recombinant human Activin A, 75 ng/ml recombinant mouse Wnt3a (R&D Systems) for the first 24 hours only. For subsequent days of differentiation media was RPMI 1640 supplemented with 0.2% human AB serum (Fisher BioReagents) and 100 ng/ml recombinant human Activin A. Before initiating differentiation, stem cells were given a brief wash in DPBS (HyClone). […] The protocol is divided into two stages: TSA-pretreatment stage (orange color) and DE differentiation stage (green color). […]

[3] = test system: human parthenogenetic stem cells (hpSC); assay: Real-time quantitative PCR of marker gene expression in hpSC; type: cell-based
Procedure: Cell culture. Undifferentiated hpSC and hESC were maintained on mouse embryo fibroblast feeder layers in KnockOut DMEM/F12 (Invitrogen) supplemented with 15% KnockOut serum replacement (Invitrogen), 0.05 mM nonessential amino acids (NEAA) (Invitrogen), 2 mM Glutamax-I (Invitrogen), penicillin/streptomycin (Invitrogen), 55 μM 2-mercapthoethonol (Invitrogen), 5 ng/ml recombinant human FGF-basic (PeproTech) and 20 ng/ml recombinant human activin A (R&D Systems); for TSA-pretreatment culture medium was supplemented with 100 nM TSA (Sigma) for 24 hours. Cultures were manually passaged at 1:4-1:6 split ratio every 5-7 days. Differentiation was carried out in RPMI 1640 (Invitrogen) supplemented with Glutamax-I, penicillin/streptomycin, 0.5 mg/ml human serum albumin (Sigma), 100 ng/ml recombinant human Activin A, 75 ng/ml recombinant mouse Wnt3a (R&D Systems) for the first 24 hours only. For subsequent days of differentiation media was RPMI 1640 supplemented with 0.2% human AB serum (Fisher BioReagents) and 100 ng/ml recombinant human Activin A. Before initiating differentiation, stem cells were given a brief wash in DPBS (HyClone). […] The protocol is divided into two stages: TSA-pretreatment stage (orange color) and DE differentiation stage (green color). TSA-pretreatment is performed against background of the culture conditions that support pluripotency state of the hpSC at time interval from “−24” hours till “0” hours. Differentiation starts from time point “0” hours by applying Activin A- and Wnt3a-signaling and withholding TSA from culture medium. Several markers characteristics of each cell population are listed.
Real-time quantitative PCR. Sample collection, reverse transcription and real-time PCR reactions were as previously described (D'Amour et al, Nat. Biotechnol 23:1534-41, 2005).

undifferentiated hpSC = assay: Cell death and morphology of undifferentiated hpSC under pretreatment; type: cell-based, human; conditions: TSA pretreatment of undifferentiated hpSC
Procedure: as §3

[4] = test system: LLC-6p parthenogenetic stem cell line; assay: Immunostaining of definitive endoderm markers, Example 1 protocol; type: cell-based, human; conditions: 100 μM TSA pretreatment, then D1, D2, D3 media
Procedure: These endoderm-like cells were derived according a protocol of various culture media (D1-Activin A+Wnt3a; D2-Activin A; D3—Activin A; see Tables 1-4, below). However, prior to culture, the parthenogenetic cells were exposed to a pretreatment agent (trichostatin A (TSA)).
Accordingly, a protocol for generating definitive endoderm cells is as follows: (i) addition of 100 μM trichostatin A (TSA) to culture medium (phSC culture medium+TSA) and culture cells for about 24 hours; (ii) cultivation of the cells in phSC culture medium+TSA for about 24 hours; (iii) remove TSA from the culture (i.e., cultivation of the cells in culture medium D1 for about 24 hours); (iv) cultivation of the cells in culture medium D2 for about 24 hours; and (v) cultivation of the cells in culture medium D3 for about 24 hours.

[5] = test system: mouse embryonic stem cells; conditions: cited from earlier work

| SMILES | enhancement in the proportion of DE produced from hpSC (hpSC) | proportion of DE derived from hpSC (hpSC; pretreatment of hpSC before Activin A) | CXCR-4 (CD184) + [% "Intact" Cells] (hpSC line 2 p; 3 day of differentiation) [%] | CXCR-4 (CD184) + [% "Intact" Cells] (hpSC line 2 p; 4 day of differentiation) [%] | CXCR-4 (CD184) + [% "Intact" Cells] (hpSC line 6 p; 3 day of differentiation) [%] | CXCR-4 (CD184) + [% "Intact" Cells] (hpSC line 6 p; 4 day of differentiation) [%] | CXCR-4 (CD184) + [% "Intact" Cells] (hpSC line 8 p; 3 day of differentiation) [%] | CXCR-4 (CD184) + [% "Intact" Cells] (hpSC line 8 p; 4 day of differentiation) [%] | CXCR-4 (CD184) + [% "Intact" Cells] (hpSC line 15 ph; 3 day of differentiation) [%] | CXCR-4 (CD184) + [% "Intact" Cells] (hpSC line 15 ph; 4 day of differentiation) [%] | increase in number of definitive endoderm cells over non-pretreated cultures [1] | relative proportion of SOX17 immunoreactive cells ([2]; after differentiation during 72 hours, TSA-treated versus non treated hpSC cultures) | proportion of SOX17-positive cells ([2]; hpSC pretreated with TSA 24 hours, after 72 hours of differentiation) | brachyury gene expression during differentiation ([3]; TSA-pretreated versus non TSA pretreated cultures, 24 h and 48 h of differentiation) | brachyury expression after pretreatment ([3]; after 24 hours TSA pretreatment, before start of differentiation (0h)) | expression of pluripotency genes OCT4 and SOX2 and DE genes CER1, SOX17, CXCR4 ([3]; after TSA pretreatment, before start of differentiation (0h)) | cell death and cell morphology (undifferentiated hpSC) | FoxA2 expression by immunostaining [4] | Sox17 expression by immunostaining [4] | effect on pluripotency factors including Nanog [5] |
| --- | --- | --- | --- | --- | --- | --- | --- | --- | --- | --- | --- | --- | --- | --- | --- | --- | --- | --- | --- | --- |
| CCCC(=O)[O-].[Na+] [NaB, sodium butyrate] | did not produce any enhancement | increased the proportion of DE | – | – | – | – | – | – | – | – | – | – | – | – | – | – | – | – | – | – |
| CC(/C=C/C(=O)NO)=C\[C@@H](C)C(=O)c1ccc(N(C)C)cc1 [TSA, trichostatin A] | did not produce any enhancement | – | 61.0 | 58.9 | 61.2 | 67.6 | 67.1 | 76.7 | 24.1 | 34.2 | 1.4-1.8 fold | most numerous | greater than 70% | higher peak level of brachyury gene expression at 24 h and sharper kinetic of reduced expression at 48 h; also recorded: significantly higher levels of brachyury transcripts | slight upregulation of brachyury expression | no significant changes | some cell death as well as changes in cell morphology | overwhelming majority of cells expressed FoxA2 | majority of cells expressed Sox17 | suppression of important pluripotency factors |
